For experiment [1], the system named is SF-268. The experiment can be described thus: Growth inhibition of human SF268 cells. It counts as functional, cell-based.
Experiment [2] concerns MCF7. The experiment can be described thus: Growth inhibition of human MCF7 cells. The class given is functional, cell-based.
Experiment [3] deals with NCI-H460. The experiment can be described thus: Growth inhibition of human NCI-H460 cells. The class given is functional, cell-based.
The subject of experiment [4] is Mycobacterium tuberculosis. The experiment can be described thus: Antimycobacterial activity against Mycobacterium tuberculosis. The class given is functional.
Experiment [5] deals with Mycobacterium tuberculosis. The experiment can be described thus: Growth inhibition of Mycobacterium tuberculosis relative to control. The class given is functional.
For experiment [6], the system named is Mycobacterium tuberculosis. The experiment can be described thus: Antimycobacterial activity against Mycobacterium tuberculosis H37Rv ATCC 25618 after 5 days. The class given is functional. The following applies: H37Rv ATCC 25618, 120 h.
The nature of experiment [7]: Antioxidant activity assessed as inhibition of ABTS radical formation relative to control. The conditions noted are these: dose or concentration not given here. It counts as functional. Also noted: concentration or dose not given beside the values.
In experiment [8] the test system is Bacillus spizizenii. The experiment can be described thus: Antibacterial activity against Bacillus subtilis ATCC 6633 at 1000 ug/ml after 48 hrs by filter paper disc method. It counts as functional. The following applies: ATCC 6633, 48 h, read-out: IZ.

pIC50: −log10 of the molar value. In brackets after ≈: the same amount, converted by molar mass.

`N#Cc1c(/N=C/C2C(N)=NN=C2O)sc2c1CCCC2` (centres undefined): the negative-log IC50 (pIC50) – broadly, the negative decadic logarithm of the IC50, by convention in mol/L – in experiment [1] is 7.70; in experiment [2], 7.70; in experiment [3], 8.00. As to `N#Cc1c(/N=C/n2nc(N)cc2O)sc2c1CCCC2`, the pIC50 in experiment [1] was 7.22; in experiment [2], 7.70; in experiment [3] it was 7.10. As for `COc1ccc(Nc2nnc(NC(=O)c3cc4cc(Oc5ccccc5)ccc4s3)s2)cc1`, in experiment [4], the MIC – broadly, the smallest concentration in the dilution series that meets the test's criterion for growth inhibition – is over 6.25 µg/mL. Moreover, the “growth inhibition (GI)” value in experiment [5] was determined as 90%. Turning to `N#Cc1c(/N=C/NNc2ccccc2)sc2c1CCCC2`, the pIC50 in experiment [1], in experiment [2] and in experiment [3] was 7.52 each time. For `N#Cc1c(/N=C/c2ccccc2)sc2c1CCCC2`, the results for the pIC50 in experiment [1], in experiment [2] and in experiment [3] were 7.70, 7.70 and 8.00, respectively. Take `CCOC(=O)c1c(/N=C/n2nc(N)cc2O)sc2c1CCCC2`: the pIC50 was 7.30 in experiment [1], 8.00 in experiment [2] and 7.70 in experiment [3]. For `O=S1(=O)C=C(Sc2nnc(-c3ccccc3)o2)c2ccccc21`, the MIC99 – broadly, an inhibitory concentration at the 99% level, which refers to growth in some studies and to a panel of isolates in others – in experiment [6] came out at 3.1 µM (≈ 1.06 µg/mL). For `O=S1(=O)C=C(Sc2nc3ccccc3o2)c2ccccc21`, the MIC99 in experiment [6] came to 5.7 µM (≈ 1.8 µg/mL). Regarding `CCOC(=O)c1c(NC2=CC(=O)C(=O)c3ccccc32)sc2c1CCCC2`, the inhibition (commonly the drop in the measured response relative to a control, in per cent) in experiment [7] turned out to be 65.6%.

Take `O=S1(=O)C=C(Sc2nnc(-c3ccc(Cl)cc3)o2)c2ccccc21`: in experiment [6], the MIC99 was 3.9 µM (≈ 1.47 µg/mL). `COc1ccccc1Nc1nnc(NC(=O)c2cc3cc(Oc4ccccc4)ccc3s2)s1` had an MIC in experiment [4] of over 6.25 µg/mL. Further, the “growth inhibition (GI)” value in experiment [5] turned out to be 60%. For `Cc1ccccc1Nc1nnc(NC(=O)c2cc3cc(Oc4ccccc4)ccc3s2)s1`, in experiment [4], the minimum inhibitory concentration (MIC) is over 6.25 µg/mL. In experiment [5], the “growth inhibition (GI)” value came out at 60%. Compound `Cc1ccc(-c2nnc(SC3=CS(=O)(=O)c4ccccc43)o2)cc1` returned an MIC99 in experiment [6] of 8.2 µM (≈ 2.92 µg/mL).

In experiment [4], `O=C(NN1C(=O)/C(=C/c2ccccc2[N+](=O)[O-])N=C1c1ccccc1)c1sc2ccc(Cl)cc2c1Cl` registered an MIC of over 6.25 µg/mL. In addition, the “growth inhibition (GI)” value in experiment [5] is 71%.

Turning to `CCOC(=O)C1=C(NCC2=C(O)C(=O)c3ccccc3C2=O)SC2CCCCC12` (centres undefined), in experiment [7], the inhibition was found to be 63.2%. `N=C1c2c(sc3c2CCCC3)N=C(SCC(=O)c2ccccc2)C1C(=O)c1ccccc1` (centres undefined): the pIC50 in experiment [1] is 8.00; in experiment [2], 8.00; in experiment [3] it was 7.70. In turn, `Cc1ccc(-n2c(S)nnc2NC(=O)c2sc3ccc(Cl)cc3c2Cl)cc1` displayed an MIC in experiment [4] of over 6.25 µg/mL. The “growth inhibition (GI)” value in experiment [5] worked out at 64%. For `O=C(Nn1c(-c2ccccc2Cl)nc2ccccc2c1=O)c1sc2ccccc2c1Cl`, the minimal inhibitory concentration (MIC) in experiment [4] came to 6.25 µg/mL (≈ 13.4 µM). `COC1=C(Nc2sc3c(c2C(N)=O)CCCC3)C(=O)c2ccccc2C1=O`: the inhibition in experiment [7] is 96%. Turning to `CCOC(=O)c1c(NC2=C(OC)C(=O)c3ccccc3C2=O)sc2c1CCCC2`, the inhibition in experiment [7] is 89.9%. On to `O=C(Nc1ccc(C2=NN(c3ccc(F)cc3)C(c3ccccc3)C2)cc1)c1sc2ccccc2c1Cl` (centres undefined), for which the zone of inhibition at 1000 µg/mL in experiment [8] came out at 16 mm.

As for `COc1ccc(/C=C/C(=O)c2ccc(NC(=O)c3sc4ccccc4c3Cl)cc2)cc1`, the zone of inhibition at 1000 µg/mL in experiment [8] was 16 mm. Consider `O=C(NN1C(=O)/C(=C/c2cccc(Br)c2)N=C1c1ccccc1)c1sc2ccc(Cl)cc2c1Cl`, for which, in experiment [4], the minimum inhibitory concentration (MIC) is over 6.25 µg/mL. In experiment [5], the “growth inhibition (GI)” value worked out at 67%. As for `CCOC(=O)C1=C(NNC2=C(O)C(=O)c3ccccc3C2=O)SC2CCCCC12` (centres undefined), the inhibition in experiment [7] amounted to 98.9%.

On to `Clc1c(-c2nnc(CNc3ccccc3)o2)sc2ccccc12`, for which the zone of inhibition at 1000 µg/mL in experiment [8] came out at 15 mm. Take `O=C(Nn1c(-c2ccccc2[N+](=O)[O-])nc2ccccc2c1=O)c1sc2ccccc2c1Cl`: the MIC in experiment [4] was 12.5 µg/mL (≈ 26.2 µM).

For the compound `Cn1nnnc1SC1=CS(=O)(=O)c2ccccc21`, the MIC99 in experiment [6] is 2.6 µM (≈ 0.729 µg/mL). In the case of `NNC1=Nc2sc3c(c2C(=O)C1C(=O)c1ccccc1)CCCC3` (centres undefined), the pIC50 is 8.00 in experiment [1], 7.52 in experiment [2] and 7.70 in experiment [3]. As for `COc1ccc(-c2nnc(SC3=CS(=O)(=O)c4ccccc43)o2)cc1`, in experiment [6], the MIC99 came out at 7.2 µM (≈ 2.68 µg/mL).

(Values after ChEMBL document CHEMBL4130365, “An overview of benzo[b]thiophene-based medicinal chemistry” (Eur J Med Chem, 2017).)
